Experiment [1] deals with T1, Nuclear receptor ROR-gamma (Homo sapiens) (UniProt P51449).
T1 sequence (whole entry): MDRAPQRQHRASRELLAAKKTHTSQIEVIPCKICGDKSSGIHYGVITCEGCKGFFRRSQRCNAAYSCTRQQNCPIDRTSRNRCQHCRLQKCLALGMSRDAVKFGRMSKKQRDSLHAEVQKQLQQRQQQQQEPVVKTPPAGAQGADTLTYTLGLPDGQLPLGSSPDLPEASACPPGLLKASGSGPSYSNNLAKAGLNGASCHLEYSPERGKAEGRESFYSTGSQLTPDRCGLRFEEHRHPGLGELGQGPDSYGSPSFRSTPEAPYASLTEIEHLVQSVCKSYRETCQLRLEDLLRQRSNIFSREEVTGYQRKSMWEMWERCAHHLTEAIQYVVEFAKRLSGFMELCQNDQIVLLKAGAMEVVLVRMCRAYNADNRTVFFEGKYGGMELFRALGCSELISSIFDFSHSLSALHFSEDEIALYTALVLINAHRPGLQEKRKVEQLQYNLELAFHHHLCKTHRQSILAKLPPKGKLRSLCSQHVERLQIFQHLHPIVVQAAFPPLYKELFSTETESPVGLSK
Briefly: Modulator activity at GAL4-tagged human RORgammat ligand binding domain expressed HEK293T cells by luciferase reporter gene assay relative to untreated control. It is filed as cell-based. Particulars: HEK-293T, concentration not given here.

Experiment [2] concerns T-cell. Briefly: Inhibition of IL17 production in human CD4-positive T cells incubated for 3 days. It is filed as functional, cell-based. As to conditions: 72 h.
The target in experiment [3] is T2, Nuclear receptor ROR-gamma (Homo sapiens, UniProt P51449).
T2 sequence (P51449 whole entry): T1 sequence (whole entry)
Briefly: Binding affinity to human wild type RORgammat ligand binding domain expressed in Escherichia coli by thermofluor assay. (In general: DSF heats the sample and reads unfolding from a dye or from intrinsic fluorescence.)

The target in experiment [4] is T2, Nuclear receptor ROR-gamma. Briefly: Modulator activity at GAL4-tagged human RORgammat ligand binding domain expressed HEK293T cells by luciferase reporter gene assay. It is filed as cell-based, HEK-293T.

As usually defined, the inhibition is the drop in the measured response relative to a control, in per cent. Low readings indicate little suppression, high ones strong suppression. The IC50 is the point on the concentration scale where inhibition reaches its midpoint. Read a low IC50 as greater potency in that assay. The molecule `Cn1cncc1C(O)(c1ccc(Cl)cc1)c1ccc2nc(Cl)c(Cc3ccccc3)c(Cl)c2c1` (stereo not given) registered an inhibition in experiment [1] of 72%. Besides, the IC50 in experiment [2] turned out to be 0.59 µM.

What is called Kd is a measure of binding affinity in units of concentration. A higher Kd goes with lower affinity. As to `OC(c1ccncc1)(c1ccc2nc(Cl)c(Cc3ccc(Cl)cc3)c(Cl)c2c1)c1cncs1` (stereo not given), in experiment [3], the Kd is 0.00083 µM. Further, the IC50 in experiment [4] was found to be 0.0065 µM; in experiment [2], 0.085 µM. The molecule further registered an inhibition in experiment [1] of 85%.

Consider `Cn1cncc1C(O)(c1ccc(C(F)(F)F)nc1)c1ccc2nc(C#N)c(Cc3ccc(-n4cccn4)cc3)c(C#N)c2c1` (stereo not given), for which the inhibition in experiment [1] stood at 99%. The IC50 in experiment [2] is 0.025 µM.

In experiment [1], `COc1nc2ccc(C(O)(c3sc(C)nc3C)c3cnnn3C)cc2c(Cl)c1Cc1ccc(C(F)(F)F)cc1` (stereo not given) gave an inhibition of 94%. The molecule also returned an IC50 in experiment [2] of 0.0015 µM.

For the origin of these results see ChEMBL document CHEMBL3351462, “RORγt Modulators Are Potentially Useful for the Treatment of the Immune-Mediated Inflammatory Diseases” (ACS Med Chem Lett, 2014).
